This test concerns Pseudomonas aeruginosa (PAO). Nature of the test: Kirby-Bauer disk diffusion test, agar overlay culture. The format is cell-based. As to conditions: 6 mm disk, 24 hours at 37° C. As to the method:
FIG. 13 is a schematic illustrating a Kirby-Bauer Disk Diffusion test. Bacterial cells are plated from a broth culture onto sterile agar petri dishes, and antibiotic soaked paper disks (or control disks without antibiotic) are placed directly on the dish. After 24 or more hours, a confluent layer of bacteria appear to grow up on the dish. Clearing or clear but hazy zones indicate antibiotic sensitivity of the test microbe. The size of the killing zone reflects how well the antibiotic diffuses into the agar and sensitivity of the organism.
FIG. 14A is an image showing the results of a Disk Diffusion test with Pseudomonas aeruginosa (PAO). Three disks were placed on a PAO/agar overlay culture: a penicillin-soaked paper disk, a negative control (no treatment) paper disk, and a sterile punch disk of pure elemental sheet copper, and the culture was incubated for 24 hours. Zones of inhibition are marked as clearing zones (dashed circles) where bacterial growth was stunted. […]
In some studies, a disk-diffusion test was used as a model for testing diffusion and bacterial targeting (FIG. 13). […] The bacteria were allowed to grow on the agar media, and growth was observed using a simple read-out: a zone of clearing around a disk indicated no bacterial growth, and conversely, the lack of a clearing perimeter indicated bacterial resistance. […]
(In general: Agar diffusion results depend on both activity and mobility in agar.)

As for penicillin, the “clearing extended from the edge of the disk” value was 5-7 mm. The same substance yielded a killing zone (FIG. 14A) of 6 mm.
